The subject of experiment [1] is Zika virus. Briefly: EC50 is reported via analysis of immunofluorescence staining. The assay has been performed by Icahn School of Medicine at Mount Sinai. The format is functional, organism-based, Chlorocebus sabaeus, VeroE6/TMPRSS2. Conditions: for EC90: P-gp concentration 2 uM, P-gp inhibitor Elacidar.
Experiment [2] has as its system Zika virus. Put plainly: Functional immunofluorescence assay to measure dose dependent changes in antiviral-drug inhibitory efficacy against Zika virus PRVABC59 in Vero E6/TMPRSS2 cells. Cells are treated with antiviral candidates that are serially diluted, following infection, cells are fixed. EC50 is reported via analysis of immunofluorescence staining. The assay has been performed by Icahn School of Medicine at Mount Sinai. The format is organism-based, Chlorocebus sabaeus. Conditions: for pEC50: VeroE6/TMPRSS2.

Experiment [3] deals with dengue virus type 2. Briefly: Functional immunofluorescence assay to measure dose dependent changes in antiviral-drug inhibitory efficacy against Dengue virus type 2 Thailand/16681/84 in Vero E6/TMPRSS2 cells. Cells are treated with antiviral candidates that are serially diluted, following infection, cells are fixed. EC50 is reported via analysis of immunofluorescence staining. The assay has been performed by Icahn School of Medicine at Mount Sinai. Type of experiment: organism-based, Chlorocebus sabaeus. As to conditions: for pEC50: VeroE6/TMPRSS2.

For experiment [4], the system named is dengue virus type 2. Briefly: Functional assay to measure dose dependent changes in antiviral-drug inhibitory efficacy against Dengue virus type 2 New Guinea C in Vero E6 miRFP670 cells (cotreated with P-gp inhibitor, CP100356). Cells are treated with antiviral candidates that are serially diluted, following infection, cells are fixed. EC50 is reported via analysis of fluorescence intensity using high-content imager. The …. The format is organism-based, Chlorocebus sabaeus, Vero C1008. Conditions: Dengue virus.

The test system of experiment [5] is dengue virus type 2. Put plainly: Functional immunofluorescence assay to measure dose dependent changes in antiviral-drug inhibitory efficacy against Dengue virus type 2 Thailand/16681/84 in Vero E6/TMPRSS2 cells (cotreated with P-gp inhibitor, Elacridar). Cells are treated with antiviral candidates that are serially diluted, following infection, cells are fixed. EC50 is reported via analysis of immunofluorescence staining. The assay has been performed by Icahn School of Medicine at Mount Sinai. Type of experiment: organism-based, Chlorocebus sabaeus, VeroE6/TMPRSS2.

Experiment [6] deals with Zika virus. Briefly: Functional CPE-based assay to measure dose dependent changes in antiviral-drug inhibitory efficacy against Zika virus MR766 in Vero E6 miRFP670 cells. Cells are treated with antiviral candidates that are serially diluted. EC50 is reported via analysis of MTS assay as a readout of CPE. The assay has been performed by KU Leuven. The format is organism-based, Chlorocebus sabaeus, Vero C1008. As to conditions: Zika virus. Background: Tetrazolium dyes change colour on reduction, which living cells bring about.

pEC50: −log10 of the molar value. Values joined by “and” are separate entries in the source; they are usually repeats but may differ in a detail not shown here. Equal values may be shown once.

For the compound `O=C(Nc1cc(Cl)cc(C(=O)Nc2ccc3c(c2)CNC3)c1)OCc1ccccc1`, the EC90 – broadly, the concentration at which the effect reaches the 90% level – in the experiment on Zika virus [1] (Baseline response 0 %, Hill slope -10.107, Maximum measured 106.671 %, Maximum response 100 %, Minimum measured 12.006 %, R squared 0.759) is > 5.56 µM; in the experiment on Zika virus [1] (Zika virus, VeroE6/TMPRSS2, Baseline response 0 %, Hill slope 0.615, Maximum measured 150.152 %, Maximum response 100 %, Minimum measured 64.245 %, R squared 0.072), > 3.33 µM; with Zika virus [2] (VeroE6/TMPRSS2, Maximum measured 887.776 %, Minimum measured 72.98 %), > 50 µM; in the experiment on dengue virus type 2 [3] (VeroE6/TMPRSS2, Baseline response 0 %, Hill slope -0.704, Maximum measured 114.373 %, Maximum response 100 %, Minimum measured 21.903 %, R squared 0.634) it was > 5.56 µM; in the experiment with dengue virus type 2 [4] (Vero C1008, Maximum measured 108.699 %, Minimum measured 64.199 %, P-gp concentration 500 nM, P-gp inhibitor CP100356) it was > 50 µM; with dengue virus type 2 [5] (Baseline response 0 %, Hill slope -0.262, Maximum measured 88.903 %, Maximum response 100 %, Minimum measured 51.493 %, P-gp concentration 2 uM, R squared 0.387, P-gp inhibitor Elacidar), > 5.56 µM. Further, the EC90 in the experiment on dengue virus type 2 [5] (Dengue virus, VeroE6/TMPRSS2, Baseline response 0 %, Hill slope 0.742, Maximum measured 298.531 %, Maximum response 100 %, Minimum measured 53.657 %, P-gp concentration 2 uM, R squared 0.04, P-gp inhibitor Elacidar) is > 3.33 µM. Besides, the pEC50 (commonly −log10 of the EC50, conventionally taken in molar units) in the experiment on Zika virus [1] (Zika virus, VeroE6/TMPRSS2) is < 5.48; in the experiment on Zika virus [1] (veroe6/tmprss2) it was 5.34; with Zika virus [2], < 4.30; in the experiment on dengue virus type 2 [3], 6.21; in the experiment on dengue virus type 2 [4] (Vero C1008), < 4.30; in the experiment on dengue virus type 2 [5] (Dengue virus, VeroE6/TMPRSS2) it was < 5.48. The pEC50 in the experiment with dengue virus type 2 [5] (veroe6/tmprss2) is < 5.26.

`NCCCc1cccc(NC(=O)c2cc(Cl)cc(NC(=O)OCc3ccccc3)c2)n1`: the pEC50 was 6.12 in the experiment with Zika virus [1] (Zika virus, VeroE6/TMPRSS2); < 4.30 in the experiment on Zika virus [2]; > 7.64 in the experiment with dengue virus type 2 [3]; < 5.26 with dengue virus type 2 [5] (Dengue virus, VeroE6/TMPRSS2). Moreover, the 90% effect concentration (EC90) was > 16.7 µM in the experiment on Zika virus [1] (Zika virus, VeroE6/TMPRSS2, Baseline response 0 %, Hill slope -0.324, Maximum measured 72.025 %, Maximum response 100 %, Minimum measured 4.462 %, R squared 0.463); > 50 µM in the experiment on Zika virus [2] (VeroE6/TMPRSS2, Maximum measured 444.624 %, Minimum measured 59.048 %); 2.12 µM with dengue virus type 2 [3] (VeroE6/TMPRSS2, Baseline response 0 %, EC90 CI (lower) 0 uM, EC90 CI (upper) 0.069 uM, Hill slope -0.47, Maximum measured 66.667 %, Maximum response 100 %, Minimum measured 7.762 %, R squared 0.244); > 5.56 µM in the experiment on dengue virus type 2 [5] (Dengue virus, VeroE6/TMPRSS2, Baseline response 0 %, Hill slope -0.245, Maximum measured 101.026 %, Maximum response 100 %, Minimum measured 51.347 %, P-gp concentration 2 uM, R squared 0.141, P-gp inhibitor Elacidar).

Regarding `Cc1cc(CN)cc(NC(=O)c2cc(Cl)cc(NC(=O)OCc3ccccc3)c2)c1`, the EC90 with Zika virus [1] (Baseline response 0 %, Hill slope -0.823, Maximum measured 127.605 %, Maximum response 100 %, Minimum measured 3.711 %, R squared 0.613) is > 5.56 µM; in the experiment on Zika virus [1] (Zika virus, VeroE6/TMPRSS2, Baseline response 0 %, Hill slope -1.09, Maximum measured 145.706 %, Maximum response 100 %, Minimum measured 48.4 %, R squared 0.191), > 3.33 µM; with Zika virus [2] (VeroE6/TMPRSS2, Maximum measured 728.77 %, Minimum measured 52.412 %), > 50 µM; in the experiment with dengue virus type 2 [3] (VeroE6/TMPRSS2, Maximum measured 117.926 %, Minimum measured 57.292 %) it was > 5.56 µM; in the experiment on dengue virus type 2 [5] (Dengue virus, VeroE6/TMPRSS2, Maximum measured 126.603 %, Minimum measured 82.463 %, P-gp concentration 2 uM, P-gp inhibitor Elacidar) it was > 1.85 µM. The pEC50 is 5.50 and 6.18 with Zika virus [1] (veroe6/tmprss2); < 4.30 with Zika virus [2]; < 5.26 in the experiment on dengue virus type 2 [3]; < 5.73 in the experiment with dengue virus type 2 [5] (Dengue virus, VeroE6/TMPRSS2).

In the case of `CCc1cc(C(=O)Nc2cccc(CN)c2)sc1-c1ccc(Cl)cc1`, the pEC50 is < 4.30 in the experiment on Zika virus [1] (Zika virus, VeroE6/TMPRSS2); 7.40 with dengue virus type 2 [3]; 5.10 with dengue virus type 2 [4] (Vero C1008); 5.83 in the experiment with dengue virus type 2 [5] (Dengue virus, VeroE6/TMPRSS2). Further, the EC90 with Zika virus [1] (Zika virus, VeroE6/TMPRSS2, Baseline response 0 %, Hill slope -0.283, Maximum measured 157.581 %, Maximum response 100 %, Minimum measured 60.948 %, R squared 0.14) was > 50 µM; in the experiment on dengue virus type 2 [3] (VeroE6/TMPRSS2, Baseline response 0 %, EC90 CI (lower) 0 uM, EC90 CI (upper) […] uM, Hill slope -0.657, Maximum measured 73.173 %, Maximum response 100 %, Minimum measured 2.32 %, R squared 0.658), 1.14 µM; in the experiment with dengue virus type 2 [4] (Vero C1008, Baseline response 0 %, EC90 CI (lower) 5.869 uM, EC90 CI (upper) 6.978 uM, Hill slope -10.543, Maximum measured 99.815 %, Maximum response 100 %, Minimum measured 0.348 %, P-gp concentration 500 nM, R squared 0.992, P-gp inhibitor CP100356) it was 9.71 µM; in the experiment with dengue virus type 2 [5] (Dengue virus, VeroE6/TMPRSS2, Baseline response 0 %, Hill slope -0.734, Maximum measured 115.481 %, Maximum response 100 %, Minimum measured 26.383 %, P-gp concentration 2 uM, R squared 0.805, P-gp inhibitor Elacidar) it was > 5.56 µM.

Take `Cc1cc(-c2ccc([C@@H](NC(=O)OCc3ccccc3)C(=O)Nc3cccc(CN)c3)cc2)cs1`: the pEC50 in the experiment on Zika virus [1] (Zika virus, VeroE6/TMPRSS2) was < 4.30; in the experiment with Zika virus [2] it was < 4.30; with dengue virus type 2 [3] it was 6.84; in the experiment on dengue virus type 2 [5] (Dengue virus, VeroE6/TMPRSS2), < 5.26. For the same compound, the EC90 in the experiment on Zika virus [1] (Zika virus, VeroE6/TMPRSS2, Maximum measured 84.809 %, Minimum measured 8.553 %) was > 50 µM; with Zika virus [2] (VeroE6/TMPRSS2, Maximum measured 207.969 %, Minimum measured 85.523 %) it was > 50 µM; in the experiment on dengue virus type 2 [3] (VeroE6/TMPRSS2, Baseline response 0 %, Hill slope -0.322, Maximum measured 78.243 %, Maximum response 100 %, Minimum measured 15.352 %, R squared 0.327), > 5.56 µM; with dengue virus type 2 [5] (Dengue virus, VeroE6/TMPRSS2, Maximum measured 25.792 %, Minimum measured 7.149 %, P-gp concentration 2 uM, P-gp inhibitor Elacidar) it was > 5.56 µM.

Consider `NCc1cccc(C(=O)Nc2cc(Cl)cc(NC(=O)OCc3ccccc3)c2)c1`, for which the EC90 in the experiment on Zika virus [1] (Baseline response 0 %, Hill slope -0.985, Maximum measured 92.072 %, Maximum response 100 %, Minimum measured 6.61 %, R squared 0.567) was > 5.56 µM; in the experiment with Zika virus [1] (Zika virus, VeroE6/TMPRSS2, Baseline response 0 %, Hill slope -0.721, Maximum measured 131.562 %, Maximum response 100 %, Minimum measured 27.938 %, R squared 0.396), > 3.33 µM; in the experiment on dengue virus type 2 [3] (VeroE6/TMPRSS2, Maximum measured 181.372 %, Minimum measured 88.426 %) it was > 5.56 µM; in the experiment with dengue virus type 2 [5] (Dengue virus, VeroE6/TMPRSS2) it was 5.42 µM. Besides, the pEC50 was 5.68 and 6.06 with Zika virus [1] (veroe6/tmprss2); < 5.26 in the experiment on dengue virus type 2 [3]; 5.50 in the experiment on dengue virus type 2 [5] (Dengue virus, VeroE6/TMPRSS2).

For `O=C(O)c1cc(Cl)ccc1NS(=O)(=O)c1ccc(Oc2ccccc2Cl)cc1`, the pEC50 in the experiment with Zika virus [2] was < 4.30; in the experiment with dengue virus type 2 [3], > 7.64. Moreover, the EC90 with Zika virus [2] (VeroE6/TMPRSS2, Baseline response 0 %, Hill slope 0.308, Maximum measured 143.489 %, Maximum response 100 %, Minimum measured 67.888 %, R squared 0.041) is > 50 µM; in the experiment with dengue virus type 2 [3] (VeroE6/TMPRSS2, Baseline response 0 %, Hill slope -0.289, Maximum measured 50.892 %, Maximum response 100 %, Minimum measured 16.572 %, R squared 0.294), > 5.56 µM.

Consider `O=C(Nc1cc(Cl)cc(C(=O)Nc2cccc(-n3nn[nH]c3=O)c2)c1)OCc1ccccc1`, for which the pEC50 was 6.08 in the experiment on Zika virus [1] (Zika virus, VeroE6/TMPRSS2); < 4.30 in the experiment on Zika virus [6] (Vero C1008); 4.34 in the experiment on Zika virus [2]; 4.36 in the experiment with dengue virus type 2 [4] (Vero C1008); 4.42 in the experiment on dengue virus type 2 [5] (Dengue virus, VeroE6/TMPRSS2). In addition, the EC90 in the experiment on Zika virus [1] (Zika virus, VeroE6/TMPRSS2, Baseline response 0 %, Hill slope -0.989, Maximum measured 91.506 %, Maximum response 100 %, Minimum measured 6.41 %, R squared 0.606) was > 5.56 µM; in the experiment on Zika virus [6] (Vero C1008, Baseline response 0 %, Hill slope -0.529, Maximum measured 3.199 %, Maximum response 100 %, Minimum measured -1.205 %, R squared 0.435), > 50 µM; in the experiment on Zika virus [2] (VeroE6/TMPRSS2, Baseline response 0 %, Hill slope -14.888, Maximum measured 123.167 %, Maximum response 100 %, Minimum measured 20.725 %, R squared 0.524), > 50 µM; with dengue virus type 2 [4] (Vero C1008), 48.8 µM; in the experiment on dengue virus type 2 [5] (Dengue virus, VeroE6/TMPRSS2, Baseline response 0 %, Hill slope -4.745, Maximum measured 70.688 %, Maximum response 60 %, Minimum measured 12.915 %, P-gp concentration 2 uM, R squared 0.282, P-gp inhibitor Elacidar) it was > 50 µM.
